Results on four compounds are retold here after patent publication US11344625B2, “Compositions having antifungal activity” (WAKO FILTER TECHNOLOGY Co., LTD., priority 2015, dated 2022).

In assay [1] the test system is Trichophyton mentagrophytes TIMM 2789. Nature of the assay: In vitro inhibition test for Trichophyton (pour-plate, agar). Type of assay: cell-based. The note with it: cultured at 28° C. As for the experimental part:
A clinical isolate, Trichophyton mentagrophytes TIMM 2789, held by the Teikyo University Medical Mycology Research Center was used as the Trichophyton. For the preculture process, this Trichophyton was extracted from low-temperature silica stock one week prior to the day of the test, and was cultured on a Sabouraud Dextrose Agar culture plate containing 50 μg/ml of chloramphenicol and 500 μg/ml of cycloheximide (such that these components were diluted to 1/10). This culturing was performed for one week at 28° C., and the bacteria were collected and used on the day of the test. The setting of the Trichophyton bacterial count was achieved by transferring the collected bacteria using a pour-plate method to a culture medium such that the final concentration was 10^3 cells/ml. In addition, the respective test samples were also transferred to a culture medium using a pour-plate method such that the final concentrations thereof were set to those shown in the table below. […] In the preparation, 1 ml of each test sample solution and 24 ml of RPMI-1640 culture medium were blended together, and prepared in a sterilized plastic Petri dish. The Trichophyton inoculation culture medium that was prepared in this manner was then cultured at 28° C. for four days, and the growth inhibitory effect of the mycelia after this culturing was observed and the properties thereof determined. The determinations were made both visually, and in the case of turbidity being present, by comparing the growth condition of the mycelia with a control (containing no test sample additives) via photomicrograph (at magnification ×40).
Results for the negativity and positivity of the bacteria obtained from each test sample are shown below in Table 6. Note that if the mycelial growth rate of the control is taken as 100%, then when the mycelial growth rate in the test sample is 0%, this is determined to be [−], while if the mycelial growth rate in the test sample is 1 to 20%, this is determined to be [+], and if the mycelial growth rate in the test sample is 21 to 90%, this is determined to be […]. Note that FIG. 15 and FIG. 16 are photographs showing states 7 days after colony formation of the Trichophyton in each test sample.

In assay [2] the test system is Candida albicans TIMM 1768. The experiment in a line: Oral candidiasis model in mice. The note with it: day 2. The format is in vivo, ICR strain mice. As for the experimental part: Using ICR strain mice (males, 6 weeks old, Charles River Laboratories, Japan) as the experimental animals, these mice were subcutaneously injected with 100 mg/kg of prednisolone as an immunosuppressant on the day prior to the candidiasis inoculation. Additionally, tap water containing 15 mg/ml of chlortetracycline hydrochloride was made freely available starting from that same day. On the day of the innoculation, in order to keep the mice in a resting state, 14.4 mg/kg of chlorpromazine hydrochloride (manufactured by Wako Pure Chemical Industries, Ltd.) was intramuscularly administered in advance. The bacterial strain and culturing method that were used were the same as in the Examples as far as the previous paragraph, and the multiplied bacterial cells were suspended in an RPMI-1640 culture medium containing 2% calf serum so as to form a bacterial solution whose bacterial count was adjusted to 2×10^8 cells/ml. […] Two days after the inoculation the mouse was euthanized, and the tongue symptom score was evaluated in accordance with a reference. […] A fixed quantity of this was then coated onto a Candida GS agar plate, and was cultured at 37° C. for 20 hours. The number of colonies appearing after this time was then measured. The number of viable Candida bacteria CFU (colony forming units) recovered from the relevant individuals was then calculated from the number of colonies.

Assay [3] concerns Candida albicans TIMM 1768. The experiment in a line: Inhibition test for Candida mycelial growth (crystal violet, checkerboard for combinations). Type of assay: cell-based. The note with it: for IC (at a 70% growth inhibitory concentration): checkerboard; for IC 70 (70% growth inhibitory concentration): alone, Candida mycelial growth; for improvement effect in the anticandidal activity against Candida mycelial growth: test reagent alone, concentration series. As for the experimental part:
A clinical isolate, Candida albicans TIMM 1768, held by the Teikyo University Medical Mycology Research Center was used as the Candida. This Candida was cultured for 20 hours at 37° C. on a Sabouraud Dextrose Agar culture plate. The multiplied bacterial cells were recovered, and then suspended in sterilized water so as to form Candida solutions whose bacterial count was adjusted to 5×10^3 cells/ml. Each sample was dissolved in advance in DMSO (dimethyl sulfoxide) so as to match the final concentration, and was then added to a 1/3 RPMI-1640 culture medium containing 2% calf serum so as to form sample solutions. 100 μL of both the sample solution (having a DSMO concentration in the culture medium of 0.5%) and the Candida bacterial solution were then placed respectively in each well of a 96-hole microplate (manufactured by Sumitomo Bakelite, Tokyo), and these were then cultured for three hours at 37° C. in a 5% carbon dioxide gas atmosphere. After three hours, the solutions in each well were discarded and the wells were cleaned. Subsequently, 200 μL of 1/3 RPMI-1640 was newly added to each well, and culturing was performed for 16 hours at 37° C. in a presence of 5% carbon dioxide gas. Once this culturing had ended, the solutions in each well were removed by suction, and the wells were washed using physiological saline. 200 μL of 70% ethanol was then injected so as to sterilize the Candida. After the ethanol had been removed, and the wells washed with tap water, 100 μL of a dye solution (i.e., a 0.1 M phosphate buffer containing 0.01% of dissolved crystal violet solution) was injected and left standing for 15 minutes. As a result, the Candida mycelia adhering to the surface of the wells were dyed.
After the wells were then washed with tap water so as to remove excess dye solution, 150 μL of […] containing 0.04 NHCL, and 50 μL of a 0.25% sodium dodecyl sulfate solution were then injected so as to free the coloring adhering to the bacterial cells. After the coloring had been freed, the plate was set in a multiscan photometer (i.e., a Multiskan FC, manufactured by Thermo Fisher Scientific Inc.), and the OD at 620 nm was measured in each well. The growth inhibition rate was then determined using the following formula. Growth inhibition rate (%)=(1−sample OD/subject OD)×100
The anticandidal activity synergistic effect provided by the combined use was evaluated using a checkerboard method. […] The experiment conditions and the measurement method and the like were the same as those employed for the mycelial growth test (i.e., Example 1).
The anticandidal activity synergistic effect obtained from a combined use was evaluated using a checkerboard method in the same way as in Example 2. […] The experiment conditions and the measurement method and the like were the same as those employed for the mycelial growth test (i.e., Example 1).
The anticandidal activity effect obtained from each test reagent was evaluated using a checkerboard method in the same way as in Example 2. […] The experiment conditions and the measurement method and the like were the same as those employed for the mycelial growth test (i.e., Example 1).

Assay [4] deals with Malassezia pachydermatis. The experiment in a line: Anti-Malassezia fungal activity, agar dilution method. The format is cell-based. To be noted: for Determination (mycelial growth rate taking control as 100): 7 days at 32° C. Here is the method: 100 μL lots of the test bacterial solution adjusted to McFarland 1.0 were coated over this Agar plate and were cultured for seven days at 32° C. Thereafter, the growth rate of the bacteria thereon were compared with a control (i.e., an MLNA culture medium containing no test additives) and their properties were determined. […] Note that if the mycelial growth rate of the control is taken as 100%, then when the mycelial growth rate in the test sample is 0%, this is determined to be [−], while if the mycelial growth rate in the test sample is 1 to 20%, this is determined to be [+], and if the mycelial growth rate in the test sample is 21 to 90%, this is determined to be […].

In assay [5] the test system is Trichophyton mentagrophytes TIMM 2789. Nature of the assay: In vitro inhibition test for Trichophyton (pour-plate, agar). The format is cell-based. To be noted: for MIC: Trichophyton mentagrophytes, read-out: MIC (minimum inhibitory concentration).
Where [6] appears, read: LYZOX used in combination with terpinen-4-ol.
[7] abbreviates: used in combination with decanoic acid.
Setting [8] is: used in combination with terpinen-4-ol.

In brackets after ≈: the same amount, converted by molar mass. Read-outs that look alike come from different tables or passages of the source.

Regarding “LYZOX: complex formed by bonding lysozyme to chitosan (14000 Da) via a Maillard reaction; LYZOX is a registered trademark”, the “Determination (mycelial growth rate taking control as 100)” value (“Determination” below) in assay [1] (1 mg/ml) is “+++ (91 to 100%)”; in assay [1] (2.5 mg/ml), “++ (21 to 90%)”; in assay [1] (5 mg/ml) it was “++ (21 to 90%)”; in assay [1] (10 mg/ml), “− (0%)”; in assay [4] (0.05 mg/ml), “+++ (91 to 100%)”; in assay [4] (0.1 mg/ml), “++ (21 to 90%)”. Further, the “Determination” value in assay [4] (0.5 mg/ml) and in assay [4] (1 mg/ml) was “− (0%)” throughout. The tongue symptom score result in assay [2] (L 20 mg/ml on tongue dorsum 3, 24, 27 h after inoculation) was “remarkable improvement effect”. Moreover, the Candida growth rate in assay [3] (250 μg/ml) stood at 0.9%. The “IC (at a 70% growth inhibitory concentration)” value in assay [3] (setting [6]) came out at 60 µg/mL. In addition, the “IC 70 (70% growth inhibitory concentration)” value in assay [3] came out at 193 µg/mL. Moreover, the “improvement effect in the anticandidal activity against Candida mycelial growth” value in assay [3] is “improvement effect in the anticandidal activity against Candida mycelial growth was visible”. Also, the “improvement effect in the anticandidal activity from combined usage against Candida mycelial growth” value in assay [3] (setting [7]) and in assay [3] (setting [8]) was “remarkable improvement effect” in each case. Further, the “anti-Malassezia fungal activity against Malassezia fungi” value in assay [4] (summary of agar dilution and disk experiments) is on record as “exhibited anti-Malassezia fungal activity”. The “MIC (minimum inhibitory concentration)” value in assay [5] (LYZOX and decanoic acid used in combination) is 100 µg/mL; in assay [5] (used alone), 10000 µg/mL.

In the case of `CCCCCCCCCC(=O)O` [Decanoic acid, decanoic acid], the “Determination” value in assay [1] (0.8 mg/ml) is “+++ (91 to 100%)”; in assay [1] (0.9 mg/ml), “+++ (91 to 100%)”; in assay [1] (1 mg/ml), “++ (21 to 90%)”; in assay [1] (1.5 mg/ml), “− (0%)”; in assay [4] (0.1 mg/ml) it was “+++ (91 to 100%)”; in assay [4] (0.2 mg/ml) it was “+++ (91 to 100%)”. Also, the “Determination” value in assay [4] (1 mg/ml) was “+++ (91 to 100%)”; in assay [4] (2 mg/ml), “+ (1 to 20%)”. Moreover, the “IC (at a 70% growth inhibitory concentration)” value in assay [3] (LYZOX used in combination with capric acid (decanoic acid)) was 25 µg/mL. Besides, in assay [3], the “IC 70 (70% growth inhibitory concentration)” value was determined as 480 µg/mL. Moreover, the MIC in assay [5] (TIMM2789, LYZOX and decanoic acid used in combination) amounted to 200 µg/mL; in assay [5] (TIMM2789, used alone), 1500 µg/mL (≈ 8.71 mM).

In the case of “Lysozyme: simple lysozyme, unbonded component of the complex”, the “Determination” value in assay [1] (2.5 mg/ml) is “+++ (91 to 100%)”; in assay [1] (5 mg/ml) it was “++ (21 to 90%)”; in assay [4] (0.05 mg/ml) it was “+++ (91 to 100%)”; in assay [4] (0.5 mg/ml), “+++ (91 to 100%)”. Also, the “improvement effect in the anticandidal activity against Candida mycelial growth” value in assay [3] was “no improvement effect”. Further, the “improvement effect in the anticandidal activity from combined usage against Candida mycelial growth” value in assay [3] (setting [7]) and in assay [3] (setting [8]) was “no improvement effect” in each case.

As for `CC1=CCC(O)(C(C)C)CC1` (stereo not shown) [Terpinen-4-ol, terpinen-4-ol], the “viable bacteria count recovered from the oral cavity” value in assay [2] (T 10 mg/ml on tongue dorsum 3, 24, 27 h after inoculation) was “reduction in the viable bacterial count”. In addition, the “IC (at a 70% growth inhibitory concentration)” value in assay [3] (setting [6]) is 280 µg/mL. Moreover, the “IC 70 (70% growth inhibitory concentration)” value in assay [3] is 1900 µg/mL.
